Experimental data taken from PubChem BioAssay AID248 (DTP/NCI, 2004).
Values joined by “and” are separate entries in the source; they are usually repeats but may differ in a detail not shown here. Equal entries are not always repeated. Inconclusive results and toxic doses are left out. Rule as the data show it: active = T/C of 150% or more; inactive = T/C below 125%.

System: L1210 leukemia ip in BDF1 mice, survival T/C
Assay: NCI In Vivo Anticancer Drug Screen. Data for tumor model L1210 Leukemia (intraperitoneal) in B6D2F1 (BDF1) mice
Conditions: endpoint: mean survival time, higher = longer survival
In short: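 Tumor cells were implanted, animals were treated, and survival was followed. The result divides the treated measurement by the vehicle-control measurement.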

[1] = dose: 100.0 mg/kg/injection, schedule: Q01DX009 (ip), vehicle: saline
[2] = dose: 200.0 mg/kg/injection, schedule: Q01DX009 (ip), vehicle: saline
[3] = dose: 100.0 mg/kg/injection, schedule: Q04DX003 (ip), vehicle: saline with Tween-80
[4] = dose: 200.0 mg/kg/injection, schedule: Q04DX003 (ip), vehicle: saline with Tween-80
[5] = dose: 400.0 mg/kg/injection, schedule: Q04DX003 (ip), vehicle: saline with Tween-80
[6] = dose: 100.0 mg/kg/injection, schedule: Q01DX001 (ip), vehicle: saline
[7] = dose: 200.0 mg/kg/injection, schedule: Q01DX001 (ip), vehicle: saline
[8] = dose: 100.0 mg/kg/injection, schedule: Q04DX002 (ip), vehicle: Klucel (hydroxypropylcellulose) (HPC)
[9] = dose: 100.0 mg/kg/injection, schedule: Q04DX003 (ip), vehicle: Klucel (hydroxypropylcellulose) (HPC)
[10] = dose: 200.0 mg/kg/injection, schedule: Q04DX003 (ip), vehicle: Klucel (hydroxypropylcellulose) (HPC)
[11] = dose: 400.0 mg/kg/injection, schedule: Q04DX003 (ip), vehicle: Klucel (hydroxypropylcellulose) (HPC)
[12] = dose: 50.0 mg/kg/injection, schedule: Q01DX009 (ip), vehicle: saline

Measured: T/C

O=C(NCCCCC(NC(=O)c1ccccc1)C(=O)NCCCCCCCCCCNC(=O)C(CCCCNC(=O)c1ccccc1)NC(=O)c1ccccc1)c1ccccc1 (stereo not given)
inactive: dose: 10.0 mg/kg/injection, schedule: Q01DX Z (ip), vehicle: saline 100 % of control | dose: 30.0 mg/kg/injection, schedule: Q01DX Z (ip), vehicle: saline 90 % of control

CCOc1ccc(NC(=O)c2cccc(Cl)c2)cc1
inactive: [1] 109 % of control | [2] 96 % of control | dose: 400.0 mg/kg/injection, schedule: Q01DX009 (ip), vehicle: saline 96 % of control

CC(C)(C)NNC(=O)c1ccccc1
inactive: dose: 75.0 mg/kg/injection, schedule: Q04DX003 (ip), vehicle: saline with Tween-80 106 % of control

S=P(c1ccccc1)(c1ccccc1)C(P(c1ccccc1)c1ccccc1)P(c1ccccc1)c1ccccc1
inactive: dose: 100.0 mg/kg/injection, schedule: Q04DX002 (ip), vehicle: saline with Tween-80 97 % of control | dose: 200.0 mg/kg/injection, schedule: Q04DX002 (ip), vehicle: saline with Tween-80 100 % of control | dose: 400.0 mg/kg/injection, schedule: Q04DX002 (ip), vehicle: saline with Tween-80 97 % of control

CC(=O)O[C@H]1C[C@@]2(C)[C@@H](C[C@@H](O)[C@H]3[C@@]4(C)CC[C@@H](O)[C@@H](C)[C@@H]4CC[C@@]32C)/C1=C(\CCC=C(C)C)C(=O)O
inactive: dose: 50.0 mg/kg/injection, schedule: Q01DX009 (sc), vehicle: steriod suspending solution 95 % of control | dose: 100.0 mg/kg/injection, schedule: Q01DX001 (ip), vehicle: carboxymethylcellulose (CMC) 97 % of control | dose: 100.0 mg/kg/injection, schedule: Q01DX009 (sc), vehicle: steriod suspending solution 95 % of control | dose: 100.0 mg/kg/injection, schedule: Q04DX003 (ip), vehicle: steriod suspending solution 102 % of control | dose: 200.0 mg/kg/injection, schedule: Q01DX001 (ip), vehicle: carboxymethylcellulose (CMC) 94 % of control | dose: 200.0 mg/kg/injection, schedule: Q01DX009 (sc), vehicle: steriod suspending solution 103 % of control | dose: 200.0 mg/kg/injection, schedule: Q04DX003 (ip), vehicle: steriod suspending solution 102 % of control | dose: 400.0 mg/kg/injection, schedule: Q01DX001 (ip), vehicle: carboxymethylcellulose (CMC) 90 % of control | dose: 400.0 mg/kg/injection, schedule: Q04DX003 (ip), vehicle: steriod suspending solution 101 % of control

CCS(=O)(=O)/C=C/c1cccnc1
inactive: dose: 100.0 mg/kg/injection, schedule: Q04DX002 (ip), vehicle: saline 96 % of control | dose: 200.0 mg/kg/injection, schedule: Q04DX002 (ip), vehicle: saline 100 % of control | dose: 400.0 mg/kg/injection, schedule: Q04DX002 (ip), vehicle: saline 107 % of control

CCc1c(CNc2ccc(C(=O)NC(CC(=O)O)CC(=O)O)cc2)ccc2nc(N)nc(N)c12
inactive: dose: 0.25 mg/kg/injection, schedule: Q01DX009 (ip), vehicle: saline 114 % of control | dose: 1.0 mg/kg/injection, schedule: Q01DX009 (ip), vehicle: saline 103 % of control | dose: 1.0 mg/kg/injection, schedule: Q04DX003 (ip), vehicle: saline 118 % of control

CCOc1ccc(OCC)cc1
inactive: [3] 101 % of control | [4] 101 % of control | [5] 94 % of control

O=C(OCC1OC(n2cnc3c(=S)nc[nH]c32)C(OC(=O)c2ccc([N+](=O)[O-])cc2)C1OC(=O)c1ccc([N+](=O)[O-])cc1)c1ccc([N+](=O)[O-])cc1 (stereo not given)
active: [2] 152 % of control
inactive: dose: 16.5 mg/kg/injection, schedule: Q01DX009 (ip), vehicle: saline with Tween-80 95 % of control | dose: 33.0 mg/kg/injection, schedule: Q01DX009 (ip), vehicle: saline with Tween-80 117 % of control | [6] 121 % of control | dose: 100.0 mg/kg/injection, schedule: Q01DX Z (ip), vehicle: other 112 % of control | dose: 132.0 mg/kg/injection, schedule: Q01DX001 (ip), vehicle: saline 111 % of control and 118 % of control | [7] 106 % of control and 120 % of control | dose: 300.0 mg/kg/injection, schedule: Q01DX001 (ip), vehicle: saline 117 % of control | dose: 800.0 mg/kg/injection, schedule: Q01DX Z (ip), vehicle: other 93 % of control

Cc1ccc(S(=O)(=O)OCC(O)C(OC(=O)c2ccccc2)C(OC(=O)c2ccccc2)C(CO)OC(=O)c2ccccc2)cc1 (stereo not given)
inactive: dose: 25.0 mg/kg/injection, schedule: Q01DX001 (ip), vehicle: saline with Tween-80 92 % of control | dose: 50.0 mg/kg/injection, schedule: Q01DX001 (ip), vehicle: saline with Tween-80 95 % of control | dose: 100.0 mg/kg/injection, schedule: Q01DX001 (ip), vehicle: saline with Tween-80 88 % of control and 89 % of control

CC12CCC(/C(=N/O)C1=O)C2(C)C (stereo not given)
inactive: [8] 106 % of control | dose: 200.0 mg/kg/injection, schedule: Q04DX002 (ip), vehicle: Klucel (hydroxypropylcellulose) (HPC) 110 % of control | dose: 400.0 mg/kg/injection, schedule: Q04DX002 (ip), vehicle: Klucel (hydroxypropylcellulose) (HPC) 103 % of control

COc1cc(C=Nc2ccccc2C(=O)N/N=C/c2cc(OC)c(OC)c(OC)c2)cc(OC)c1OC
inactive: [9] 97 % of control | [10] 100 % of control | [11] 91 % of control

O=c1[nH]cnc2nncnc12
inactive: dose: 50.0 mg/kg/injection, schedule: Q01DX001 (ip), vehicle: carboxymethylcellulose (CMC) 93 % of control

CC(=O)OC1C(CO)OC2C1OC1=NC(N)=NCN12 (stereo not given)
inactive: dose: 1.56 mg/kg/injection, schedule: Q01DX009 (ip), vehicle: saline 102 % of control and 119 % of control | dose: 3.12 mg/kg/injection, schedule: Q01DX009 (ip), vehicle: saline 102 % of control | dose: 6.25 mg/kg/injection, schedule: Q01DX009 (ip), vehicle: saline 95 % of control and 98 % of control | dose: 12.5 mg/kg/injection, schedule: Q01DX009 (ip), vehicle: saline 96 % of control and 98 % of control | dose: 25.0 mg/kg/injection, schedule: Q01DX009 (ip), vehicle: saline 96 % of control | [12] 100 % of control and 91 % of control | [1] 104 % of control and 91 % of control | [2] 107 % of control and 109 % of control

O=C(O)CCN1CCN(c2cccc(Cl)c2)CC1
inactive: [6] 96 % of control | [7] 95 % of control

C/C(=N/N=C(N)N)c1ccc(NC(=S)Nc2ccc(/C(C)=N/N=C(N)N)cc2)cc1
active: dose: 20.0 mg/kg/injection, schedule: Q01DX009 (ip), vehicle: water 176 % of control

O=C(O)CCC(=O)Nc1ccccc1C(F)(F)F
inactive: [3] 104 % of control | dose: 200.0 mg/kg/injection, schedule: Q01DX009 (ip), vehicle: saline with Tween-80 93 % of control | [4] 98 % of control | dose: 400.0 mg/kg/injection, schedule: Q01DX009 (ip), vehicle: saline with Tween-80 86 % of control | [5] 90 % of control

N#CC=P(c1ccccc1)(c1ccccc1)c1ccccc1
inactive: [12] 87 % of control

CC1(C)N=C(N)N=C(N)N1c1ccc(OCCCOc2ccccc2)c(Cl)c1
inactive: dose: 50.0 mg/kg/injection, schedule: Q01DX009 (ip), vehicle: Klucel (hydroxypropylcellulose) (HPC) 98 % of control | dose: 100.0 mg/kg/injection, schedule: Q01DX009 (ip), vehicle: Klucel (hydroxypropylcellulose) (HPC) 102 % of control | [9] 92 % of control | [10] 91 % of control

CCCC[n+]1cccc(C(N)=O)c1
inactive: dose: 100.0 mg/kg/injection, schedule: Q04DX003 (ip), vehicle: saline 100 % of control | dose: 200.0 mg/kg/injection, schedule: Q04DX003 (ip), vehicle: saline 100 % of control | dose: 400.0 mg/kg/injection, schedule: Q04DX003 (ip), vehicle: saline 89 % of control

ClC1=c2ccccc2=C2C(Cl)=c3ccccc3=C12
inactive: dose: 50.0 mg/kg/injection, schedule: Q04DX002 (ip), vehicle: Klucel (hydroxypropylcellulose) (HPC) 97 % of control | [8] 97 % of control

C1=CC2CCC1CC2c1ccccc1 (stereo not given)
inactive: [6] 104 % of control | [7] 105 % of control | dose: 400.0 mg/kg/injection, schedule: Q01DX001 (ip), vehicle: saline 114 % of control

CC1(CCc2ccc(N)cc2)NC(=O)NC1=O (stereo not given)
inactive: [9] 110 % of control | [10] 96 % of control | [11] 93 % of control
